Tests used:
P. fluorescens = experiment: Bacterial growth assay, media supplemented with ascarosides; type: cell-based
Source text: (§1) To test whether bacteria respond to ascarosides, a simple growth assay was utilized. […] Enhanced growth and rhizosphere colonization of P. fluorescens has been observed in the presence of nematodes (Knox, et al. (2004) Appl. Environ. Microbiol., 70:4666-4671) and this may be due to ascr #18 excretion. Next, a wider selection of bacterial species from soil and human environments, including P. tabacum, P. fluorescens, S. marcescens, E. faecalis, and B. subtilis, was studied. […] In contrast to ascr #18, the effects of other ascarosides such as ascr #9, ascr #10, and ascr #3 were species-specific.

S. marcescens = experiment: as above; type: cell-based
Source text: as §1

B. subtilis = experiment: as above; type: cell-based; conditions: FIG. 1B
Method: (§2) FIG. 1A provides a graph and images of P. syringae growth. Bacterial growth media were supplemented with different concentrations of ascarosides. Ten-fold serially diluted bacterial cells were plated and bacterial growth and quantification was performed 3 days post incubation. FIG. 1B provides images of B. subtilis growth. Bacterial growth media were supplemented with different concentrations of ascarosides. Ten-fold serially diluted bacterial cells were plated and bacterial growth and quantification was performed 18 hours post incubation. FIG. 1C provides a graph showing biofilm formation of S. marcescens in the presence of 1 nM of ascr #3, ascr #9, ascr #10, and ascr #18. *P<0.05, **P<0.001, two-tailed t-test. Bacterial growth and biofilm assays have been independently repeated at least three times.
as §1

soil microbiome = experiment: Soil samples treated with ascr #18, microbial DNA sequencing (16s rRNA, ITS); conditions: low nanomolar concentrations, 24 hours; preliminary analyses
Method: (§3) To investigate whether ascarosides affect soil microbiomes, soil samples were collected from sites free from pesticide and fertilizer applications to ensure inclusion of a representative diversity of natural microbes (Panke-Buisse, et al. (2015) ISME J., 9:980-9; Lebeis, et al. (2015) Science 349:860-864). The soil samples were treated with low nanomolar concentrations of ascr #18 for 24 hours followed by microbial DNA and metabolome extraction. DNA sequencing was performed by targeting conserved 16s rRNA for bacteria and internal transcribed spacer (ITS) gene for fungi (Panke-Buisse, et al. (2015) ISME J., 9:980-9).

A. tumefaciens = experiment: Bacterial growth assay, media supplemented with ascarosides; type: cell-based; conditions: growth media supplemented with 1 and 10 nM
Source text: as §1

P. tabacum = experiment: as above; type: cell-based
Source text: as §1

E. faecalis = experiment: as above; type: cell-based
Source text: as §1

E. coli [1] = experiment: as above; type: cell-based; conditions: growth media supplemented with 1 and 10 nM
Source text: as §1

soil samples = experiment: Comparative metabolomics of soil samples treated with ascr #18; type: in vitro ADME
Method: as §3
(§4) To identify which specific microbes from the soil are responsible for ascr #18 metabolism, the effect of ascr #18 on individual microbes was tested. Bacteria and fungi in the soil interact with nematodes in diverse ways (Lakshmanan, et al. (2014) Plant Physiol., 166:689-700; Knox, et al. (2004) Appl. Environ. Microbiol., 70:4666-4671; Siddiqui, et al. (1999) Bioresour. Technol., 69:167-179). Microbial metabolism of ascr #18 was assessed in three bacteria, E. coli, Agrobacterium tumefaciens, and P. syringae and two fungi, Aspergillus fumigatus and A. flavus, all of which are commonly found in soil. […] Whereas, like fungi, all tested plants and animals are capable of metabolizing ascr #18, it appears that bacteria (and perhaps other prokaryotes) lack this ability.

P. syringae [2] = experiment: Bacterial growth assay, media supplemented with ascarosides; type: cell-based; conditions: growth media supplemented with 1 and 10 nM; FIG. 1A
Method: as §2, §1

[3] = test system: Agrobacterium tumefaciens; experiment: Microbial metabolism of ascr #18; type: in vitro ADME
Method: as §4

A. flavus = experiment: Microbial metabolism of ascr #18; type: in vitro ADME
Method: as §4

P. syringae [4] = experiment: Microbial metabolism of ascr #18; type: in vitro ADME
Method: as §4

Aspergillus fumigatus = experiment: Microbial metabolism of ascr #18; type: in vitro ADME
Method: as §4

E. coli [5] = experiment: Microbial metabolism of ascr #18; type: in vitro ADME
Method: as §4

CC1O[C@@H](O[C@H](C)CCCC/C=C/C(=O)O)C(O)C[C@H]1O (stereo partly drawn) [ascr #3]
bacterial growth of P. fluorescens (P. fluorescens): suppressed | bacterial growth of S. marcescens (S. marcescens): promoted growth | bacterial growth of B. subtilis (B. subtilis): suppressed

CC1O[C@@H](O[C@@H](C)CCCCCCCCC(=O)O)C(O)C[C@H]1O (stereo in doubt) [ascr #18, (10R)-(3′R,5′R-dihydroxy-6'S-methyl-(2H)-tetrahydropyran-2-yloxy)-undecanoic acid]
effect on microbial composition of the soil (soil microbiome): shifts microbial composition of the soil | bacterial growth of P. fluorescens (P. fluorescens): generally promoted growth | bacterial growth of A. tumefaciens (A. tumefaciens): not affected | bacterial growth of P. tabacum (P. tabacum): generally promoted growth | bacterial growth of S. marcescens (S. marcescens): generally promoted growth | bacterial growth of E. faecalis (E. faecalis): generally promoted growth | bacterial growth of E. coli (E. coli [1]): not affected | metabolism of ascr #18 in soil samples (soil samples): extensively edited into shorter side-chained ascarosides | bacterial growth of B. subtilis (B. subtilis): generally promoted growth | bacterial growth of P. syringae (P. syringae [2]): significant growth increase | metabolism of ascr #18 by Agrobacterium tumefaciens [3]: none of the bacteria were able to metabolize | metabolism of ascr #18 by A. flavus (A. flavus): metabolized into shorter-chained ascarosides | metabolism of ascr #18 by P. syringae (P. syringae [4]): none of the bacteria were able to metabolize | metabolism of ascr #18 by Aspergillus fumigatus (Aspergillus fumigatus): metabolized into shorter-chained ascarosides | metabolism of ascr #18 by E. coli (E. coli [5]): none of the bacteria were able to metabolize

CC1O[C@@H](O[C@H](C)CCCCCCC(=O)O)C(O)C[C@H]1O (stereo partly drawn) [ascr #10]
bacterial growth of P. fluorescens (P. fluorescens): suppressed | bacterial growth of S. marcescens (S. marcescens): promoted growth | bacterial growth of B. subtilis (B. subtilis): suppressed

C[C@H](CCC(=O)O)O[C@@H]1O[C@@H](C)[C@H](O)C[C@H]1O [ascr #9]
bacterial growth of P. fluorescens (P. fluorescens): suppressed | bacterial growth of S. marcescens (S. marcescens): promoted growth | bacterial growth of B. subtilis (B. subtilis): suppressed

From patent US12604893B2, “Compositions and methods for modulating microbiomes” (BOYCE THOMPSON INSTITUTE FOR PLANT RESEARCH, INC., priority 2019, dated 2026)
